Laboratory results published in ChEMBL document CHEMBL4020751, “Synthesis and in vitro biological evaluation of novel coumarin derivatives containing isoxazole moieties on melanin synthesis in B16 cells and inhibition on bacteria” (Bioorg Med Chem Lett, 2017).

Experiments:
B16 [1] = assay: Induction of melanin synthesis in mouse B16 cells assessed as increase in melanin content at 50 uM after 48 hrs measured by spectrophotometric method relative to control; assay type: functional
Candida albicans = assay: Antifungal activity against Candida albicans ATCC 10231 assessed as diameter of inhibition zone after 24 hrs by agar well diffusion method; assay type: functional
Escherichia coli = assay: Antibacterial activity against Escherichia coli ATCC 11229 assessed as diameter of inhibition zone after 24 hrs by agar well diffusion method; assay type: functional
Staphylococcus aureus = assay: Antibacterial activity against Staphylococcus aureus ATCC 6538 assessed as diameter of inhibition zone after 24 hrs by agar well diffusion method; assay type: functional
B16 [2] = assay: Cytotoxicity against mouse B16 cells at 50 uM after 24 hrs by CCK8 assay; assay type: cell-based; details: b16, 24 h
B16 [3] = assay: Potency index, ratio of compound activity to 8-MOP activity for induction of melanin synthesis in mouse B16 cells; assay type: functional

SMILES | Activity (B16 [1]) [%] | diameter of the inhibition zone (DIZ) (Candida albicans) | diameter of the inhibition zone (DIZ) (Escherichia coli) | diameter of the inhibition zone (DIZ) (Staphylococcus aureus) | Activity (B16 [2]) | Ratio (B16 [3])
COc1ccc(-c2cc(COc3ccc4c(C)cc(=O)oc4c3)on2)cc1 | 129.45 | <=7 mm | <=7 mm | <=7 mm |  | 
Cc1cc(=O)oc2cc(OCc3cc(-c4ccccc4)no3)ccc12 | 153.35 | <=7 mm | <=7 mm | <=7 mm |  | 
Cc1cc(=O)oc2cc(OCc3cc(-c4ccc5c(c4)OCCO5)no3)ccc12 | 178.33 | <=7 mm | <=7 mm | <=7 mm |  | 
Cc1cc(=O)oc2cc(OCc3cc(-c4cccc(F)c4)no3)ccc12 | 121.15 | 7 mm | <=7 mm | <=7 mm |  | 
Cc1cc(=O)oc2cc(OCc3cc(-c4cccc(Cl)c4)no3)ccc12 | 242.18 | 7 mm | <=7 mm | <=7 mm | Toxic | 1.6
Cc1cc(=O)oc2cc(OCc3cc(-c4ccc(Cl)c(F)c4)no3)ccc12 | 182.27 | 7 mm | <=7 mm | <=7 mm |  | 
Cc1cc(=O)oc2cc(OCc3cc(-c4cc(Cl)cc(Cl)c4)no3)ccc12 | 389.95 | 10 mm | <=7 mm | <=7 mm | Toxic | 2.6
Cc1cc(=O)oc2cc(OCc3cc(-c4cc(I)ccc4F)no3)ccc12 | 169.71 | <=7 mm | <=7 mm | <=7 mm |  | 
Cc1cc(=O)oc2cc(OCc3cc(-c4ccc(F)cc4)no3)ccc12 | 115.44 | <=7 mm | <=7 mm | <=7 mm |  | 
Cc1cc(=O)oc2cc(OCc3cc(-c4ccc(F)c(F)c4)no3)ccc12 | 156.64 | 10 mm | <=7 mm | <=7 mm |  | 
COc1ccccc1-c1cc(COc2ccc3c(C)cc(=O)oc3c2)on1 | 145.05 | <=7 mm | <=7 mm | <=7 mm |  | 
Cc1cc(=O)oc2cc(OCc3cc(-c4ccc(Cl)cc4)no3)ccc12 | 191.96 | <=7 mm | <=7 mm | <=7 mm |  | 
Cc1cc(=O)oc2cc(OCc3cc(-c4cccc(OC(F)(F)F)c4)no3)ccc12 | 203.27 | <=7 mm | <=7 mm | <=7 mm | Toxic | 
Cc1cc(=O)oc2cc(OCc3cc(-c4ccc(Cl)c(Cl)c4)no3)ccc12 | 204.12 | 10 mm | <=7 mm | <=7 mm | Toxic | 
Cc1cc(=O)oc2cc(OCc3cc(-c4cc(F)cc(F)c4)no3)ccc12 | 176.55 | 10 mm | <=7 mm | <=7 mm |  | 
C[C@@H]1[C@H](O)[C@@H](C)/C=C/C=C/C=C/C=C/C=C/C=C/C=C/[C@H](O[C@@H]2O[C@H](C)[C@@H](O)[C@H](N)[C@@H]2O)C[C@@H]2O[C@](O)(C[C@@H](O)C[C@@H](O)[C@H](O)CC[C@@H](O)C[C@@H](O)CC(=O)O[C@H]1C)C[C@H](O)[C@H]2C(=O)O [AMPHOTERICIN B] |  | 11 mm | <=7 mm | <=7 mm |  | 
CC1(C)S[C@@H]2[C@H](NC(=O)[C@H](N)c3ccccc3)C(=O)N2[C@H]1C(=O)O [AMPICILLIN] |  | <=7 mm |  | 19 mm |  | 
Cc1cc(=O)oc2cc(O)ccc12 [HYMECROMONE] | 112.2 | 7 mm | <=7 mm | <=7 mm |  | 
COc1c2occc2cc2ccc(=O)oc12 [METHOXSALEN] | 149.39 | <=7 mm | <=7 mm | <=7 mm |  | 
